The assay concerns the target T1, Aromatase (Homo sapiens, UniProt P11511).
T1 sequence (P11511 whole entry): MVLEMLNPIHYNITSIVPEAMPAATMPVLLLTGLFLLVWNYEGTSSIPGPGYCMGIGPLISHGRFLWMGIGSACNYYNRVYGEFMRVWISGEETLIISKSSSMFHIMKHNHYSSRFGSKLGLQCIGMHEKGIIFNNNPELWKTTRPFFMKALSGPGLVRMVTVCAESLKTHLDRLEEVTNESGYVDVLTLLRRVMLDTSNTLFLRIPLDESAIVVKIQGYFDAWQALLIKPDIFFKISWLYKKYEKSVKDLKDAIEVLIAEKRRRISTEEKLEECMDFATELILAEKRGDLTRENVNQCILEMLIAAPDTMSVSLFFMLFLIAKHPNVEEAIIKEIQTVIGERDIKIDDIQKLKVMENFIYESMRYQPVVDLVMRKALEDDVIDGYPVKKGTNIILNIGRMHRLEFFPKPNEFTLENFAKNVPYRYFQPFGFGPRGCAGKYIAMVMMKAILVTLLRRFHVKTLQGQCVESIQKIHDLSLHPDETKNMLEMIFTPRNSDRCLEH
Description: Inhibition of human placental Cytochrome P450 19A1

As for `C[C@]12CC[C@H]3[C@@H](CCC4=CC(=O)CC[C@@]43C[C@@H]3CO3)[C@@H]1CCC2=O`, the Ki worked out at 753 nM. With `C[C@]12CC[C@H]3[C@@H](CCC4=CC(=O)CC[C@@]43C[C@H]3CO3)[C@@H]1CCC2=O` the figure was 86 nM. With `C[C@]12CC[C@H]3[C@@H](CCC4=CC(=O)CC[C@@]43C[C@H]3CS3)[C@@H]1CCC2=O` the figure was 22 nM; with `C[C@]12CC[C@H]3[C@@H](CCC4=CC(=O)CC[C@@]43C[C@@H]3CS3)[C@@H]1CCC2=O`, 206 nM.
